Measurements published in patent US5948793A, “3-pyridyloxymethyl heterocyclic ether compounds useful in controlling neurotransmitter release” (Abbott Laboratories, priority 1995, dated 1999).

Key:
[1] = system: nAChR evoked release of [3H]-dopamine, rat striatal slices; assay: Striatal dopamine release assay (nAChR evoked release of [3H]-dopamine from superfused rat striatal slices); format: cell-based, rat (male Sprague-Dawley); conditions: Table 1; example concentration * = 10 μM; relative to 100 nM (-)-nicotine
Experimental: The protocol for this procedure follows below.
A. Protocol for Determination of Striatal Dopamine Release.
nAChR evoked release of [ring-2,5,6-^3 H]-dopamine (24.4 Ci/mmol) was measured in superfused rat striatal slices. Striata were dissected from two male Sprague-Dawley rats per experiment and sliced 0.35×0.25 mm by a McIlwain Tissue Chopper (Brinkman Instrument Co., Westbury, N.Y.). After two washes with Krebs-HEPES buffer (137 mM NaCl, 4.7 mM KCl, 1 mM MgSO4, 2.5 mM CaCl2, 1.25 mM NaH2 PO4, 10 mM glucose, 15 mM HEPES-NaOH, pH 7.4, containing 10 μM pargyline and 10 μM ascorbic acid), slices were preincubated for 10 minutes at 37° C. under 95%/5% O2 /CO2. After replacing the buffer, slices were labeled with 100 nM [^3 H]-dopamine for 25 min in Krebs-HEPES at 37° C. Aliquots of slices were placed in 18 superfusion chambers of a Brandel SP2000 superfusion apparatus (Brandel, Gaithersberg, Md.). Following 47 minutes of washout, slices were exposed to agonist at various concentrations for 4 minutes. Antagonists or inhibitors, when present were introduced 4 minutes prior to and during agonist exposure. Collected fractions were counted in 5 mL of Ecolume. Tissue was recovered from superfusion chambers, solubilized with 1 mL of Solvable™ (DuPont-NEN) and counted in 15 mL of Ecolume. Fractional release of [^3 H]-dopamine was calculated from radioactivity above baseline as a fraction of total radioactivity.

[2] = target: neuronal nicotinic cholinergic channel receptors; assay: [3H]-cytisine displacement binding to neuronal nicotinic cholinergic channel receptors; format: rat (crude synaptic membranes from whole rat brain); conditions: Table 1; [3H]-cytisine 1.25 nM, 60 min at 4° C.; read-out: Receptor Binding Ki
[3] = system: cholinergic ligand-gated channels, PC12 cells; assay: Cholinergic channel activation in PC12 cells (whole-cell patch-clamp); format: cell-based
Excerpt: D. Protocols for the Determination of Cholinergic Channel Activation in PC12 Cells.
The cholinergic channel activator properties of Example 9 were investigated in PC12 cells using the whole-cell patch-clamp approach to measure current flow through ligand-gated membrane channels.

[4] = in vivo; cited from earlier work
[5] = acutely- and chronically-administered; also observed in aged animals; cited from earlier work
[6] = system: release of dopamine and acetylcholine; conditions: cited from earlier work
[7] = cited from earlier work
[8] = system: dopaminergic neurons; conditions: animals with induced brain injuries; cited from earlier work
[9] = system: heart; conditions: in vivo; cited from earlier work
[10] = transdermal patches; cited from earlier work

SMILES | Dopamine Release relative to Nicotine [1] | Ki [2] [nM] | cholinergic channel activator properties (current flow through ligand-gated channels) [3] | sensory-gating impairments [4] | cognitive function [5] | release of dopamine and acetylcholine [6] | oral bioavailability [7] | pre-synaptic loss of functional dopaminergic neurons [8] | cardiac workload and oxygen demand [9] | symptoms of ADD [10]
Cl.Cl.c1cncc(OC[C@@H]2CCN2)c1 [Example 9, 3-(2-(S)-azetidinylmethoxy)pyridine dihydrochloride] | 1.0 | 0.05 | clear agonist activity |  |  |  |  |  |  | 
CN1CCCC1c1cccnc1 (single isomer, unassigned; (-)) [(-)-nicotine] |  |  |  | normalize sensory-gating impairments | enhances cognitive function in rats | enhance the release of dopamine and acetylcholine | poor oral bioavailability | can prevent pre-synaptic loss of functional dopaminergic neurons | increasing cardiac workload and oxygen demand | improve the symptoms of ADD
